Test results from patent US20210244686A1, “Novel Systems And Methods For The Therapeutic Use of Cannabinoids or Cannabinoid Analogs to Increase The Lipid Order of Cholesterol Containing Cell Membranes” (The Regents of the University of Colorado a body corporate, priority 2018, published 2021).
pEC50: −log10 of the molar value.

Tests used:
[1] = test system: SK-N-BE(2) cells; assay: cells; format: cell-based, human
Protocol: To efficiently design the multi-omics experiments, the present inventors exposed the neuroblastoma cell line SK-N-BE(2) to escalating doses of CBD at 24, 48, and 72 hours and determined the EC50 of toxicity of CBD to be greatest at 72 hours and at an approximate concentration of 20 μM (FIG. 1 B). To maximize the efficient use of the inventor's multi-omic resources, a large dose and time survey of the CBD response was conducted in a panel of transgenic SK-N-BE(2) and HaCaT keratinocyte cell lines, each expressing a genetically encoded förster resonance energy transfer (FRET) biosensor gene capable of reporting the activity of a cellular effector molecule/activity including, but not limited to: AMP kinase activity, Erk kinase activity, cytosolic ATP, glucose, lactate, pyruvate & glutamine, Ca^2+ in the ER & Cytosol, mTor kinase activity & TACE protease activity. […] The biosensor activity profiles as a function of CBD dose and time (FIGS. 9A-C) were analyzed for the EC50 of each biosensor activity at each time (FIG. 10). The result of these efforts outlined that the most robust dose of CBD for use in multi-omic experiments is 20 μM and that the kinetic profile of the CBD response begins in hours and persists for days.

[2] = test system: SK-N-BE(2) cells; assay: 13C glucose labelled lipidomics of cholesterol biosynthesis; format: cell-based, human; conditions: 20 μM CBD, 24 hours
Protocol: These findings raise the question of whether CBD treatment leads to alterations in lipid and cholesterol metabolism (the latter pathway depicted in FIG. 3A). The present inventors used mass spectrometry-based lipidomics, a subset of metabolomics, to quantify the effect of CBD on the fluxes of key lipids and sterols. Vehicle and CBD exposed cells were fed ^13C labeled glucose for 24 hours and harvested using methanol extraction and mass spectrometry analysis. Cholesterol biosynthesis was analyzed by determining the level of incorporation of ^13C into biosynthetic intermediates. […] The effect of CBD on total cellular cholesterol was confirmed using a fluorogenic assay for cholesterol in an orthogonal experiment (FIG. 11B).
Cultured cells were harvested, washed with PBS, flash frozen, and stored at −80 C. until analysis. Prior to LC-MS analysis, samples were placed on ice and re-suspended with methanol:acetonitrile:water (5:3:2, v/v/v) at a concentration of 2 million cells per ml. Suspensions were vortexed continuously for 30 min at 4° C. Insoluble material was removed by centrifugation at 10,000 g for 10 min at 4° C. and supernatants were isolated for metabolomics analysis by UHPLC-MS. This method was used for cholesterol precursors and free headgroups. […]

SMILES: C=C(C)[C@@H]1CCC(C)=C[C@H]1c1c(O)cc(CCCCC)cc1O [CBD, cannabidiol]
- pEC50 ([1]; Homo sapiens, SKNBE2, SK-N-BE(2), greatest at 72 hours, approximate, read-out: EC50 of toxicity): ~4.70
- doses that can induce cell death ([1]; after 24 hours): > 40 µM
- labeled and total cholesterol [2]: decrease
- total and isotopically-labeled levels of cholesterol precursors [2]: accumulate
